Where two headings read alike, the source gives them in different places.
Assays:
[1] = system: Streptococcus pneumoniae 6303; assay: Example 1: growth and colony color on plates surface-spread with chromogen; type: cell-based
[2] = system: Branhamella catarrhalis (brca); assay: Example 3: colony color on chromogenic TSA II with 5% sheep blood (chromogen in medium); type: cell-based; conditions: for Colony Color: CO2
Candida albicans (caal) = assay: as above; type: cell-based
[3] = system: Citrobacter freundii (cifr); assay: as above; type: cell-based; conditions: for Colony Color: CO2
E. faecium (enfu) = assay: as above; type: cell-based; conditions: for Colony Color: enfu 49032
[4] = system: E. coli (non-O157) (esco); type: cell-based
[5] = system: Klebsiella pneumoniae (klpn); assay: Example 3: colony color on chromogenic TSA II with 5% sheep blood (chromogen in medium); type: cell-based
[6] = system: Pseudomonas aeruginosa (psae); assay: as above; type: cell-based; conditions: for Colony Color: CO2
Salmonella spp. (sasp) = type: cell-based; conditions: for Colony Color: CO2
[7] = system: Serratia marcescens (sema); assay: Example 3: colony color on chromogenic TSA II with 5% sheep blood (chromogen in medium); type: cell-based; conditions: for Colony Color: sema 13880, CO2
[8] = system: Streptococcus agalactiae (stag); assay: as above; type: cell-based
[9] = system: Staphylococcus aureus (stau); assay: as above; type: cell-based
[10] = system: Staphylococcus Coag Neg (step); assay: as above; type: cell-based; conditions: for Colony Color on Various Chromogenic TSA II with 5% Sheep Blood: 18 h
S. pneumoniae (stpn) = assay: as above; type: cell-based; conditions: for Colony Color on Various Chromogenic TSA II with 5% Sheep Blood: 18 h
S pyogenes (stpy) = assay: as above; type: cell-based; conditions: for Colony Color: 21 h; for Colony Color on Various Chromogenic TSA II with 5% Sheep Blood: 18 h
[11] = Precipitate of chromogen on pre-plated media; type: physicochemical; conditions: After 1 week
Description: 50 μl of each chromogen solution was added to the surface of each of the following pre-plated media (one chromogen solution per plate):
The solution was dispersed using a spreader and allowed to dry 3-4 hours in a hood.

cakr 34135 = assay: Example 3: colony color on chromogenic TSA II with 5% sheep blood (chromogen in medium); type: cell-based
milu 9341 = assay: as above; type: cell-based
[12] = chromogenic TSA II with 5% Sheep Blood, 0.1 g/l, 2 strains tested
[13] = chromogenic TSA II with 5% Sheep Blood, 0.1 g/l, 1 strain tested
[14] = chromogenic TSA II with 5% Sheep Blood, 0.1 g/l, 3 strains tested
[15] = chromogenic TSA II with 5% Sheep Blood, 0.1 g/l
[16] = chromogenic TSA II with 5% Sheep Blood, 0.1 g/l, 6 strains tested

CC(=O)N[C@H]1[C@H](Oc2c[nH]c3ccc(Br)c(Cl)c23)O[C@H](CO)[C@H](O)[C@@H]1O [X-Acglmn, 5-Br-4-Cl-3-indolyl-N-Acetyl-β-D-galactosaminide]
Substrates Producing Color ([1]; Summary of Table I, S. pneumoniae 6303): X-Acglmn (TSA II
Color ([1]; TSA II 5SB, S. pneu: 6303): blue
Colony Color ([2]; brca 25238, 18 h): 0
Colony Color ([2]; brca 25238, 21 h): 0
Colony Color ([2]; brca 25240, 21 h): 0
Colony Color (Summary) [2, 12]: 0
Colony Color (Candida albicans (caal); caal 10231, CO2, 24 h): gb
Colony Color (Candida albicans (caal); caal 10231, air, 24 h): 0
Colony Color (Summary) (Candida albicans (caal); [12]): +
Colony Color (Candida albicans (caal); one C. albicans): blue
Colony Color (Summary) [3, 12]: 0
Colony Color ([3]; cifr 8454, 18 h): 0
Colony Color ([3]; cifr 8454, 21 h): 0
Colony Color ([3]; cifr 33128, 18 h): 0
Colony Color ([3]; cifr 33128, 21 h): 0
Colony Color (Summary) (E. faecium (enfu); [13]): +
Colony Color (E. faecium (enfu); CO2, 18 h): lb
Colony Color (E. faecium (enfu); CO2, 21 h): db
Colony Color (E. faecium (enfu); air, 21 h): lb
Colony Color (Summary) [4, 14]: 0
Colony Color ([4]; esco 11775, CO2, 18 h): 0
Colony Color ([4]; esco 11775, CO2, 21 h): 0
Colony Color ([4]; esco 25922, CO2, 24 h): 0
Colony Color ([4]; esco 25922, air, 24 h): 0
Colony Color ([4]; esco 33605, CO2, 18 h): 0
Colony Color ([4]; esco 33605, CO2, 21 h): 0
Colony Color (Summary) [5, 14]: 0
Colony Color ([5]; klpn 13883, CO2, 18 h): 0
Colony Color ([5]; klpn 13883, CO2, 21 h): 0
Colony Color ([5]; klpn 33495, CO2, 18 h): vlgb
Colony Color ([5]; klpn 33495, CO2, 24 h): 0
Colony Color ([5]; klpn 33495, air, 24 h): 0
Colony Color ([5]; klpn 33606, CO2, 18 h): 0
Colony Color ([5]; klpn 33606, CO2, 21 h): 0
Colony Color (Summary) [6, 14]: 0
Colony Color ([6]; psae 9027, 18 h): 0
Colony Color ([6]; psae 9027, 21 h): 0
Colony Color ([6]; psae 15442, 18 h): 0
Colony Color ([6]; psae 15442, 21 h): 0
Colony Color ([6]; psae 33607, 18 h): 0
Colony Color ([6]; psae 33607, 21 h): 0
Colony Color (Summary) (Salmonella spp. (sasp); [12]): 0
Colony Color (Salmonella spp. (sasp); saty 19430, 18 h): 0
Colony Color (Salmonella spp. (sasp); saty 19430, 21 h): 0
Colony Color (Salmonella spp. (sasp); satym 14028, 18 h): 0
Colony Color (Salmonella spp. (sasp); satym 14028, 21 h): 0
Colony Color (Summary) [7, 13]: +
Colony Color ([7]; 18 h): gb
Colony Color ([7]; 21 h): gb
Colony Color (Summary) [8, 14]: 0
Colony Color ([8]; stag 4768, CO2, 21 h): 0
Colony Color ([8]; stag 4768, air, 21 h): 0
Colony Color ([8]; stag 12386, CO2, 21 h): 0
Colony Color ([8]; stag 12386, CO2, 24 h): 0
Colony Color ([8]; stag 12386, air, 24 h): 0
Colony Color (Summary) ([9]; chromogenic TSA II with 5% Sheep Blood, 0.1 g/l, 5 strains tested): 0
Colony Color ([9]; stau 1006, CO2, 21 h): 0
Colony Color ([9]; stau 1007, CO2, 21 h): 0
Colony Color ([9]; stau 1008, CO2, 21 h): 0
Colony Color ([9]; stau 1009, CO2, 21 h): 0
Colony Color ([9]; stau 25923, CO2, 18 h): 0
Colony Color ([9]; stau 25923, CO2, 24 h): 0
Colony Color ([9]; stau 25923, air, 24 h): 0
Colony Color on Various Chromogenic TSA II with 5% Sheep Blood ([9]; stau t006, CO2, 18 h): 0
Colony Color on Various Chromogenic TSA II with 5% Sheep Blood ([9]; stau t007, CO2, 18 h): 0
Colony Color on Various Chromogenic TSA II with 5% Sheep Blood ([9]; stau t008, CO2, 18 h): 0
Colony Color on Various Chromogenic TSA II with 5% Sheep Blood ([9]; stau t009, CO2, 18 h): 0
Colony Color ([10]; one S. epidermidis): blue
Colony Color on Various Chromogenic TSA II with 5% Sheep Blood ([10]; step 12228, CO2): 0
Colony Color ([10]; step 12228, CO2, 21 h): 0
Colony Color ([10]; step 12228, air, 21 h): 0
Colony Color on Various Chromogenic TSA II with 5% Sheep Blood ([10]; step cdc1, CO2): 0
Colony Color ([10]; step cdc1, CO2, 21 h): 0
Colony Color ([10]; step cdc1, air, 21 h): 0
Colony Color ([10]; step cdc2, CO2, 21 h): 0
Colony Color ([10]; step cdc2, air, 21 h): 0
Colony Color ([10]; step cdc3, CO2, 21 h): 0
Colony Color ([10]; step cdc3, air, 21 h): 1b
Colony Color on Various Chromogenic TSA II with 5% Sheep Blood ([10]; step cdc4, CO2): 0
Colony Color ([10]; step cdc4, CO2, 21 h): 0
Colony Color ([10]; step cdc4, air, 21 h): 0
Colony Color on Various Chromogenic TSA II with 5% Sheep Blood ([10]; stha cdc2, CO2): 0
Colony Color on Various Chromogenic TSA II with 5% Sheep Blood ([10]; stsa cdc3, CO2): 0
Growth vs. control (S. pneumoniae (stpn); [15]): <grth
Colony Color (Summary) (S. pneumoniae (stpn); [16]): 0
Colony Color (S. pneumoniae (stpn); stpn 1259, CO2, 21 h): 0
Colony Color (S. pneumoniae (stpn); stpn 1260, CO2, 21 h): 0
Colony Color (S. pneumoniae (stpn); stpn 1331, CO2, 21 h): 0
Colony Color (S. pneumoniae (stpn); stpn 1628, CO2, 21 h): 0
Colony Color (S. pneumoniae (stpn); stpn 6303, CO2, 24 h): 0
Colony Color (S. pneumoniae (stpn); stpn 6303, air, 24 h): 0
Colony Color (S. pneumoniae (stpn); stpn 6305, CO2, 24 h): 0
Colony Color (S. pneumoniae (stpn); stpn 6305, air, 24 h): 0
Colony Color on Various Chromogenic TSA II with 5% Sheep Blood (S. pneumoniae (stpn); stpn t259, CO2): 0
Colony Color on Various Chromogenic TSA II with 5% Sheep Blood (S. pneumoniae (stpn); stpn t260, CO2): 0
Colony Color on Various Chromogenic TSA II with 5% Sheep Blood (S. pneumoniae (stpn); stpn t331, CO2): drkr < muc
Colony Color on Various Chromogenic TSA II with 5% Sheep Blood (S. pneumoniae (stpn); stpn t628, CO2): 0
Growth vs. control (S pyogenes (stpy); [15]): <grth
Colony Color (Summary) (S pyogenes (stpy); [16]): 0
Colony Color (S pyogenes (stpy); stpy 1027, CO2): 0
Colony Color (S pyogenes (stpy); stpy 1028, CO2): 0
Colony Color (S pyogenes (stpy); stpy 1029, CO2): 0
Colony Color (S pyogenes (stpy); stpy 1030, CO2): 0
Colony Color (S pyogenes (stpy); stpy 19615, CO2): 0
Colony Color (S pyogenes (stpy); stpy 19615, air): 0
Colony Color (S pyogenes (stpy); stpy 49117, CO2): 0
Colony Color (S pyogenes (stpy); stpy 49117, air): 0
Colony Color on Various Chromogenic TSA II with 5% Sheep Blood (S pyogenes (stpy); stpy 51339, CO2): 0
Colony Color (S pyogenes (stpy); stpy 51339, CO2): 0
Colony Color (S pyogenes (stpy); stpy 51339, air): 0
Colony Color on Various Chromogenic TSA II with 5% Sheep Blood (S pyogenes (stpy); stpy t027, CO2): 0
Colony Color on Various Chromogenic TSA II with 5% Sheep Blood (S pyogenes (stpy); stpy t028, CO2): 0
Colony Color on Various Chromogenic TSA II with 5% Sheep Blood (S pyogenes (stpy); stpy t029, CO2): 0
Colony Color on Various Chromogenic TSA II with 5% Sheep Blood (S pyogenes (stpy); stpy t030, CO2): 0
Precipitate on plates after 1 week [11]: some precipitate was evident
Colony Color (cakr 34135; CO2, 18 h): 0
Colony Color (cakr 34135; CO2, 21 h): 0
Colony Color (milu 9341; CO2, 18 h): ly
Colony Color (milu 9341; CO2, 21 h): 0

From patent US20020086278A1, “CHROMOGENIC MEDIA CONTAINING BLOOD OR HEMIN” (priority 1999, published 2002)
